Measurements taken from patent US20050164882A1, “Method for increasing the resistance of plants to the phytotoxicity of agrochemicals” (priority 2002, published 2005).

What was measured:
Rice cv. “Koshihikari” = test: Effect on plant growth: plant height (stunting) of rice clumps after seedbox spray and transplanting into the field; assay type: in vivo; conditions: 200 g of active ingredient A per hectare; three weeks after the treatment
Source text: Rice cv. “Koshihikari” was sown in a seedbox and grown for 24 days under controlled warm and moist conditions in controlled-environment cabinets and in the greenhouse. Two days before the rice was transplanted into the field, each of the seedboxes was sprayed to runoff point with preparations of the active ingredient in the concentrations mentioned hereinbelow in the form of an aqueous suspension made with a stock solution consisting of 10% active ingredient, 85% cyclohexanone and 5% emulsifier. The seedboxes were subsequently cultured in the greenhouse for a further 2 days until the rice was manually transplanted into the field at a rate of 5 clumps per m^2.
Three weeks after the treatment, the plant height of the rice clumps was measured and compared with untreated rice plants. The extent of plant stunting is a measure for the plant-damaging effect of substances on the root system.

[1] = tested on: Echinochloa crus-galli (barnyardgrass, ECHCG); test: Greenhouse post-emergence phytotoxicity, barnyardgrass; assay type: in vivo; conditions: Table 2a, application rate 0.0039 kg/ha, scale 0 to 100
Source text: (§1) The experimental period extended over 2 to 4 weeks.

[2] = tested on: Oryza sativa (rice, ORYSA); test: Greenhouse post-emergence phytotoxicity, rice; conditions: Table 2a
Description: The active ingredients were prepared separately or jointly as a 10% emulsion in a mixture of 85% by weight of cyclohexanone, 5% by weight of Nekanil® LN (Lutensol® AP6, wetter with emulsifying and dispersing action based on ethoxylated alkylphenols) and 10% by weight of Wettol® EM (nonionic emulsifier based on ethoxylated castor oil) and diluted with water to give the desired concentration.
The culture containers used were plastic pots containing loamy sand with approximately 3.0% humus as substrate. The seeds of the test plants were sown separately for each species.
The test plants were grown separately as seedlings and transplanted into the experimental containers a few days before the treatment.
Depending on the species, the plants were kept at temperatures of from 10 to 25° C. or 20 to 35° C. The experimental period extended over 2 to 4 weeks. During this time, the plants were tended, and their response to the individual treatments was evaluated.
The phytotoxicity was evaluated using a scale of from 0 to 100. In this context, 100 means complete destruction of at least the aerial parts, and 0 means no damage or normal course of growth.

[3] = tested on: Pharbitis purpurea (morningglory, PHBPU); test: Greenhouse post-emergence phytotoxicity, morningglory; assay type: in vivo; conditions: scale 0 to 100
Source text: as §1

[4] = tested on: Triticum aestivum (spring wheat, TRZAS); test: Greenhouse post-emergence phytotoxicity, spring wheat; assay type: in vivo; conditions: Table 2b, scale 0 to 100
Source text: as §1

[5] = tested on: Chenopodium album (pigweed, CHEAL); test: Greenhouse post-emergence phytotoxicity, pigweed; assay type: in vivo; conditions: Table 2b, application rate 0.0313 kg/ha, scale 0 to 100
Source text: as §1

C[C@H](Nc1c(-c2c(F)cc(F)cc2F)c(Cl)nc2ncnn12)C(F)(F)F [A, [5-chloro-6-(2,4,6-trifluorophenyl)-[1,2,4]triazolo[1,5-a]pyrimidin-7-yl]-((S)-2,2,2-trifluoro-1-methylethyl)amine]
stunting (plant height compared with untreated rice plants) (Rice cv. “Koshihikari”): 15%

Cc1c(C(=O)c2cnn(C)c2O)ccc(S(C)(=O)=O)c1C1=NOCC1 [B, [3-(4,5-dihydroisoxazol-3-yl)-4-methane-sulfonyl-2-methylphenyl]-(5-hydroxy-1-methyl-1H-pyrazol-4-yl)-methanone]
Pytotoxicity ECHCG [1]: 90 | Pytotoxicity ORYSA ([2]; application rate 0.0039 kg/ha, scale 0 (no damage) to 100 (complete destruction)): 20

FC(F)(F)c1ccc(-c2nccc(Oc3cccc(C(F)(F)F)c3)n2)cc1 [C, 4-(3-trifluoromethylphenoxy)-2-(4-trifluoromethylphenyl)pyrimidine]
Pytotoxicity PHBPU ([3]; Table 2a, application rate 0.0078 kg/ha): 98 | Pytotoxicity PHBPU ([3]; Table 2a, application rate 0.0156 kg/ha): 98 | Pytotoxicity PHBPU ([3]; Table 2b, application rate 0.0078 kg/ha): 98 | Pytotoxicity PHBPU ([3]; Table 2b, application rate 0.0156 kg/ha): 98 | Pytotoxicity TRZAS ([4]; application rate 0.0078 kg/ha): 20 | Pytotoxicity TRZAS ([4]; application rate 0.0156 kg/ha): 25 | Pytotoxicity TRZAS ([4]; application rate 0.0313 kg/ha): 30 | Pytotoxicity CHEAL [5]: 98 | Pytotoxicity ORYSA ([2]; application rate 0.0078 kg/ha, scale 0 to 100): 10 | Pytotoxicity ORYSA ([2]; application rate 0.0156 kg/ha, scale 0 to 100): 10
